Read-outs that look alike come from different tables or passages of the source.
Assays:
[1] = system: MOLM-13 (carrying MLL-AF9); assay: Inhibition of proliferation of human tumor cells (Alamar Blue, 7 days), MOLM-13; type: cell-based; settings: MOLM-13 cells (carrying MLL-AF9), method calls the value GI50
Excerpt: Experimental Example 2: Evaluation of Inhibitory Activity of Compounds Against Proliferation of Human Tumor Cells
• Human acute lymphoblastic leukemia cells MV-4-11, purchased from American Type Culture Collection, Catalog Number: CRL-9591; • Human acute myeloid leukemia cells MOLM-13, purchased from COBIOER BIOSCIENCES CO., LTD, Catalog Number: CBP60678; • Human acute myeloid leukemia cells KG-1a, purchased from American Type Culture Collection, Catalog Number: CCL-246.1; • Inverted Microscope, purchased from Olympus Tokyo; • Countess™ Automated Cell Counter, purchased from Invitrogen, Model: C10281; and • Multilabel Reader, purchased from Bio-Tek, Model: Synergy HT.
MV-4-11 cells were cultured in an IMDM medium containing 10% fetal bovine serum, KG-a cells were cultured in an IMDM medium containing 20% fetal bovine serum, or MOLM-13 cells were cultured in an RPMI-1640 medium containing 20% fetal bovine serum, each supplemented with 100 U·mL^-1 penicillin and 100 µg·mL^-1 streptomycin. These cells were cultured at 37°C with 5% CO2. The suspensions of individual cell lines were prepared in their respective media and seeded into 96-well plates at a density of 4,000 cells/well for MV-4-11 and MOLM-13 cells, or 3,000 cells/well for KG-1a cells. On the day of the experiment, a compound stock solution was diluted in a 3-fold or 4-fold gradient using DMSO. Each gradient-diluted stock solution was then further diluted 250-fold with a complete medium to prepare a series of working solutions at different concentrations. Subsequently, 100 µL of working solution (containing a 2-fold concentration series of the test compound) was added to each well, with duplicate wells set up for each concentration.
Seven days after compound addition (on Day 7), an Alamar Blue assay reagent (MCE, HY-111391 / CS-0040317) was added to measure the fluorescence intensity in each well. Wells containing the cells in the growth medium supplemented with 0.1% DMSO (Day 7) served as high-read control wells. The readouts from the wells containing the cells in the growth medium supplemented with 0.1% DMSO on the day of compound addition (Day 0) served as low-reading control well. GraphPad Prism software was used to calculate the concentration required to inhibit 50% of cell proliferation (GI50), which serves as a cell proliferation inhibition activity index.

Menin-MLL = molecular target: T1, Menin-MLL (Homo sapiens, UniProt O00255); assay: Inhibitory activity against Menin-MLL binding (fluorescence polarization); settings: 150 nM His-Menin, 15 nM FITC-MLL, 25°C for 60 min
T1 construct: His-Menin (M1-L615 end); purchased BIORTUS BP9210
T1 sequence (O00255 1-615 isoform O00255-1): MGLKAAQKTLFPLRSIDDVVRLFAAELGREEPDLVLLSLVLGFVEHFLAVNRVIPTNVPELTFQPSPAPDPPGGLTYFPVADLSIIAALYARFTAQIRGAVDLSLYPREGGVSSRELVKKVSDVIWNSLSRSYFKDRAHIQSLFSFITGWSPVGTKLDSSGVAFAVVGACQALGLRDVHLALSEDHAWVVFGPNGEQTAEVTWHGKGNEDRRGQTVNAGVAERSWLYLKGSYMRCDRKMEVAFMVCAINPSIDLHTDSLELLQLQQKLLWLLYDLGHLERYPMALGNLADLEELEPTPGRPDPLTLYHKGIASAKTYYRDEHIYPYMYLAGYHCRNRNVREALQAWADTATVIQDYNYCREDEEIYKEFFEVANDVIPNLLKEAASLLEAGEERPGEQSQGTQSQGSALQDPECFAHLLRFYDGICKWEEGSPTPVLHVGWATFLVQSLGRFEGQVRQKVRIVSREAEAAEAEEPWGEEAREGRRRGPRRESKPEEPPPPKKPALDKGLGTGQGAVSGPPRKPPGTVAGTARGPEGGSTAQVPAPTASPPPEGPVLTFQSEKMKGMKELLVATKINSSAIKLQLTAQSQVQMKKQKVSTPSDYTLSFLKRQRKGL
Method in brief: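 His-Menin (M1-L615, 150 nM) preincubated with compound 15 min at 25 °C in HEPES pH 7.5, 50 mM NaCl, 1 mM DTT, 0.01% BSA, then 15 nM FITC-MLL4-43 peptide added for 60 min at 25 °C. Fluorescence polarization read; IC50 from 4-parameter logistic fit, duplicates.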

[2] = fluorescence polarization, read-out: Menin-MLL IC50
[3] = Menin-MLL IC50, fluorescence polarization

Structure (SMILES)	IC50 ([1]; Homo sapiens, 168 h) [nM]	IC50 (Menin-MLL; [2]) [nM]	IC50 ([1]; Homo sapiens, MOLM-13, 168 h) [nM]	IC50 (Menin-MLL; [3]) [nM]	IC50 [1] [nM]
CCN(C(=O)c1cc(F)ccc1-c1cc(C2CN([C@H](CCCN3CCN(CCF)CC3)C(C)C)C2)cc2c1cnn2C)C(C)C [Example 410]	37	5.8			
COCCN(C(=O)c1cc(F)ccc1-c1cc(C2CN([C@H](CCCN3C[C@H]4C[C@@H]3CO4)C(C)C)C2)cn2c(C)ncc12)C(C)C [Example 467-1, 5-fluoro-N-(2-methoxyethyl)-2-(3-methyl-6-{1-[(3R)-2-methyl-6-[(1R,4R)-2-oxa-5-azadicyclo[2.2.1]heptan-5-yl]hexan-3-yl]azacyclobutan-3-yl}imidazo[1,5-a]pyridin-8-yl)-N-(isopropyl)benzamide]			23	1.5	
CCN(C(=O)c1cc(F)ccc1-c1cc(C2CN([C@H](CCCN3CCC(OCCO)CC3)C(C)C)C2)cc2c1cnn2C)C(C)C [Example 401-2]	29	3.7			
CCN(C(=O)c1cc(F)ccc1-c1cc(C2CN([C@H](CCCN3CCN(C(=O)C4(C#N)COC4)CC3)C(C)C)C2)cn2c(C)ncc12)C(C)C [Example 495]	27	2.4			
CCN(C(=O)c1cc(F)ccc1-c1cc(C2CN([C@H](CCCN3CCC(S(C)(=O)=O)CC3)C(C)C)C2)cc2c1cnn2C)C(C)C [Example 406]	37	7			
CCN(C(=O)c1cc(F)ccc1-c1cc(C2CN([C@H](CCCN3CCN(C[C@@H](O)CO)CC3)C(C)C)C2)cc2c1cnn2C)C(C)C [Example 413]	45	6.9			
Cc1nc(F)c2c(-c3ccc(F)cc3C(=O)N3CCOC[C@H]3C)cc(C3CN([C@H](CCCN4CCN(CC(F)F)CC4)C(C)C)C3)cn12 [Example 362]			2.8	4.6	
CCN(C(=O)c1cc(F)ccc1-c1cc(C2CN([C@H](CCCN3CCC(C#N)(CO)CC3)C(C)C)C2)cn2c(C)ncc12)C(C)C [Example 481]			5.5	1.9	
CCN(C(=O)c1cc(F)ccc1-c1cc(C2CN(C(CCCN3CCNC(CC#N)C3)C(C)C)C2)cn2c(C)ncc12)C(C)C (stereo not shown) [Example 499]				2.1	29
CCN(C(=O)c1cc(F)ccc1-c1cc(C2CN([C@H](CN3CCN(CCOC)CC3)C(C)C)C2)cn2c(C)ncc12)C(C)C [Example 430]	46	8.4			
CCN(C(=O)c1cc(F)ccc1-c1cc(C2CN(C(CCCN3CCNC(CC#N)C3)C(C)C)C2)cn2c(C)ncc12)C(C)C (stereo not shown) [Example 498]			23	2.8	

The remaining molecules from weak to strong by IC50 ([1]; Homo sapiens, 168 h), led by results:

IC50 ([1]; Homo sapiens, 168 h) [nM]	IC50 (Menin-MLL; [2]) [nM]	Structure (SMILES)	IC50 ([1]; Homo sapiens, MOLM-13, 168 h) [nM]	IC50 (Menin-MLL; [3]) [nM]	IC50 [1] [nM]
26	4.9	CCN(C(=O)c1cc(F)ccc1-c1cc(C2CN([C@H](CN3CCN(C(CO)CO)CC3)C(C)C)C2)cn2c(C)ncc12)C(C)C [Example 435]			
25	2.6	CCN(C(=O)c1cc(F)ccc1-c1cc(C2CN([C@H](CN3CCN(C[C@@H](O)CO)CC3)C(C)C)C2)cn2c(C)ncc12)C(C)C [Example 429]			
25	1	CCN(C(=O)c1cc(F)ccc1-c1cc(C2CN([C@H](CCCN3CCN(C4(C(N)=O)COC4)CC3)C(C)C)C2)cn2c(C)ncc12)C(C)C [Example 475, 3-{4-[(4R)-4-[3-(8-{2-[ethyl(isopropyl)aminoformyl]-4-fluorophenyl}-3-methylimidazo[1,5-a]pyridin-6-yl)azacyclobutan-1-yl]-5-methylhexyl]piperazin-1-yl}oxacyclobutan-3-formamide]			
20	6.2	Cc1ncc2c(-c3ccc(F)cc3C(=O)N3CCOC[C@H]3C)cc(C3CN([C@H](CCCN4CCN(CCF)CC4)C(C)C)C3)cn12 [Example 363]			
19	3.4	CCN(C(=O)c1cc(F)ccc1-c1cc(OC2CN(C(CCCN3CCN(CCO)CC3)C(C)C)C2)n2c(C)cncc12)C(C)C (stereo not shown) [Example 488, N-ethyl-5-fluoro-2-{6-[(1-{6-[4-(2-hydroxyethyl)piperazin-1-yl]-2-methylhexan-3-yl}azacyclobutan-3-yl)oxy]-4-methylpyrrolo[1,2-a]pyrazin-8-yl}-N-(isopropyl)benzamide]			
16	2.2	CCN(C(=O)c1cc(F)ccc1-c1cc(C2CN([C@H](CCCN3CC4(C3)CN(C(C)=O)C4)C(C)C)C2)cn2c(C)ncc12)C(C)C [Example 393]			
15	1	CCN(C(=O)c1cc(F)ccc1-c1cc(C2CN([C@H](CCCN3CCN(C)[C@H](CO)C3)C(C)C)C2)cn2c(C)ncc12)C(C)C [Example 507]			
13	0.9	CCN(C(=O)c1cc(F)ccc1-c1cc(C2CN([C@H](CCCN3CCN(C)[C@@H](CO)C3)C(C)C)C2)cn2c(C)ncc12)C(C)C [Example 506]			
8.9	2.5	CCN(C(=O)c1cc(F)ccc1-c1cc(C2CN([C@H](CCCN3C4CC3CN(C(C)=O)C4)C(C)C)C2)cn2c(C)ncc12)C(C)C [Example 387]			
6.1	2	CCN(C(=O)c1cc(F)ccc1-c1cc(C2CN([C@H](CCCN3CCN(CCF)CC3)C(C)C)C2)cn2c(C)ncc12)C(C)C [Example 395]			
6.1	2.6	CCN(C(=O)c1cc(F)ccc1-c1cc(C2CN([C@H](CC[C@@H]3COCCN3)C(C)C)C2)cn2c(C)ncc12)C(C)C [Example 449-1, N-ethyl-5-fluoro-2-(3-methyl-6-{1-[(3R)-4-methyl-1-[(3R)-morpholin-3-yl]pentan-3-yl]azacyclobutan-3-yl}imidazo[1,5-a]pyridin-8-yl)-N-(isopropyl)benzamide]			
5	2.6	CCN(C(=O)c1cc(F)ccc1-c1cc(C2CN([C@H](CC[C@H]3COCCN3)C(C)C)C2)cn2c(C)ncc12)C(C)C [Example 457-2, N-ethyl-5-fluoro-2-(3-methyl-6-{1-[(3R)-4-methyl-1-[(3S)-morpholin-3-yl]pentan-3-yl]azacyclobutan-3-yl}imidazo[1,5-a]pyridin-8-yl)-N-(isopropyl)benzamide]			
4.2	3.8	CC(=O)N1CC2(CN(CCC[C@H](C(C)C)N3CC(c4cc(-c5ccc(F)cc5C(=O)N5CCOC[C@H]5C)c5c(F)nc(C)n5c4)C3)C2)C1 [Example 370, 1-{6-[(4R)-4-[3-(1-fluoro-8-{4-fluoro-2-[(3R)-3-methylmorpholin-4-carbonyl]phenyl}-3-methylimidazo[1,5-a]pyridin-6-yl)azacyclobutan-1-yl]-5-methylhexyl]-2,6-diazaspiro[3.3]heptan-2-yl}ethan-1-one]			
4.2	1.7	CCN(C(=O)c1cc(F)ccc1-c1cc(C2CN([C@H](CCCN3CCC(NS(=O)(=O)CC)CC3)C(C)C)C2)cn2c(C)ncc12)C(C)C [Example 408, 2-(6-{1-[(3R)-6-(4-ethanesulfonamidopiperidin-1-yl)-2-methylhexan-3-yl]azacyclobutan-3-yl}-3-methylimidazo[1,5-a]pyridin-8-yl)-N-ethyl-5-fluoro-N-(isopropyl)benzamide]			
3.9	5.1	Cc1ncc2c(-c3ccc(F)cc3C(=O)N3CCOC[C@H]3C)cc(C3CN([C@H](CCCN4CCN(CC(F)F)CC4)C(C)C)C3)cn12 [Example 364]			

From patent publication EP4782453A1 (Beyang Therapeutics Co., Ltd., priority 2023, dated 2025)
